10 compounds from patent US11919908B2, “Substituted pyrrolo[2,3-d]pyrimidine compounds as JAK2 V617F inhibitors” (Incyte Corporation, priority 2020, dated 2024) can be followed below.

Each structure is given as a SMILES string.

The target of experiment [1] is T1, pseudo-kinase domain (JH2) of human Wild Type JAK2 (Homo sapiens, UniProt O60674, F794H/W659A/W777A).
T1 construct: pseudo-kinase domain (JH2, amino-acids 536-812 with 3 surface mutations W659A, W777A, F794H); His (C); purchased BPS Bioscience 79463; host or cells: baculovirus expression system
Nature of the experiment: JAK2 LanthaScreen JH2-WT Binding Assay. The settings on record: 50 nM Fluorescent JAK2-JH2 Tracer, 1 hour at 25° C. Here is the method: (§1) Example B. JAK2 LanthaScreen JH2-WT Binding Assay JAK2 JH2-WT binding assay utilizes pseudo-kinase domain (JH2, amino-acids 536-812 with 3 surface mutations […]) of human Wild Type JAK2 expressed as C-terminal His-Avi-tagged, biotinylated protein in a baculovirus expression system (BPS Bioscience, Catalog #79463). The assay was conducted in black 384-well polystyrene plates in a final reaction volume of 20 μL. JAK2 JH2-WT (0.145 nM) was incubated with compounds (100 nL serially diluted in DMSO) in the presence of 50 nM Fluorescent JAK2-JH2 Tracer (MedChem Express Catalog #HY-102055) and 0.25 nM Streptavidin-Tb cryptate (Cisbio Part #610SATLB) in assay buffer (50 mM Tris, pH=7.5, 10 mM MgCl2, 0.01% Brij-35, 0.1% BSA, 1 mM EGTA, 5% Glycerol and 5 mM DTT). Non-specific binding was accessed in the presence of 2 mM ATP. After incubation for 1 hour at 25° C., LanthaScreen signals were read on a PHERAstar FS plate reader (BMG LABTECH). Data was analyzed with IDBS XLfit and GraphPad Prism 5.0 software using a four parameter dose response curve to determine IC50 for each compound.
For orientation: TR-FRET usually uses a lanthanide donor and a delayed reading to cut background.

For experiment [2], the target named is T2, pseudo-kinase domain (JH2) of human V617F mutant JAK2 (Homo sapiens, UniProt O60674, F794H/V617F/W659A/W777A).
T2 construct: pseudo-kinase domain (JH2, amino-acids 536-812 with 3 surface mutations W659A, W777A, F794H); His (C); purchased BPS Bioscience 79498; host or cells: baculovirus expression system
Nature of the experiment: JAK2 LanthaScreen JH2-V617F Binding Assay. The settings on record: 50 nM Fluorescent JAK2-JH2 Tracer, 1 hour at 25° C. Here is the method:
as §1, with “C.” for “B.”, “JH2-V617F” for “JH2-WT”, “V617F mutant” for “Wild Type”, “#79498).” for “#79463).”, “JH2-V617F (0.26” for “JH2-WT (0.145”

For experiment [3], the target named is T3, catalytic domain (JH1) of human JAK2 (Homo sapiens, UniProt O60674).
T3 construct: catalytic domain (JH1, amino acids 826-1132) of human JAK2; FLAG (N); purchased Carna Biosciences 08-445-20N; host or cells: baculovirus expression system
The experiment in a line: JAK2 LanthaScreen JH1 Binding Assay. The settings on record: 50 nM Fluorescent JAK2-JH1 Tracer, 2 hours at 25° C. On the procedure:
Example A. JAK2 LanthaScreen […] Binding Assay JAK2 JH1 binding assay utilizes catalytic domain (JH1, amino acids 826-1132) of human JAK2 expressed as N-terminal FLAG-tagged, biotinylated protein in a baculovirus expression system (Carna Biosciences, Product #08-445-20N). The assay was conducted in black 384-well polystyrene plates in a final reaction volume of 20 μL. JAK2 JH1 (1.5 nM) was incubated with compounds (100 nL serially diluted in DMSO) in the presence of 50 nM Fluorescent JAK2-JH1 Tracer and 0.5 nM Streptavidin-Tb cryptate (Cisbio Part #610SATLB) in assay buffer (50 mM Tris, pH=7.5, 10 mM MgCl2, 0.01% Brij-35, 0.1% BSA, 1 mM EGTA, 5% Glycerol and 5 mM DTT). Non-specific binding was accessed in the presence of 2 mM ATP. After incubation for 2 hours at 25° C., LanthaScreen signals were read on a PHERAstar FS plate reader (BMG LABTECH). Data was analyzed with IDBS XLfit and GraphPad Prism 5.0 software using a four parameter dose response curve to determine IC50 for each compound.

T3 sequence (O60674 826-1132): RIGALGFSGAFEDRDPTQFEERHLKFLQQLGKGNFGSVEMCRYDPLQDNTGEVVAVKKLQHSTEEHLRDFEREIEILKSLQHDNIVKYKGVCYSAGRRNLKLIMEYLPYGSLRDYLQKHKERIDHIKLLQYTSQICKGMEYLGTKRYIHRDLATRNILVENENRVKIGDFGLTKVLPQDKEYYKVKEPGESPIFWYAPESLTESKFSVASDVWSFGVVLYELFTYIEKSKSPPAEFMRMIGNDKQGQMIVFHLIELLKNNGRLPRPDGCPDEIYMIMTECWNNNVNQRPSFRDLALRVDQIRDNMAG
T1 sequence (O60674 536-812 W659A/W777A/F794H): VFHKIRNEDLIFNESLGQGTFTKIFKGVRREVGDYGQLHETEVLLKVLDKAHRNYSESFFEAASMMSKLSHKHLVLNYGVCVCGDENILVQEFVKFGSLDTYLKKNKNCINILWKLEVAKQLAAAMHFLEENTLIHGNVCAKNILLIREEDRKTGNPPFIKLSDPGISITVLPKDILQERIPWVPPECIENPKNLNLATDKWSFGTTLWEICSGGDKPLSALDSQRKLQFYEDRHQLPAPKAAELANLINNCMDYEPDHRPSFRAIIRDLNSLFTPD
T2 sequence (O60674 536-812 V617F/W659A/W777A/F794H): as the sequence (O60674 536-812 W659A/W777A/F794H) above, with V82F counted along it

On to `CN(C)S(=O)(=O)c1ccc(-c2[nH]c3nc(N)[nH]c(=O)c3c2-c2cccc3c2OCCC3)cc1` [Example 10, 4-(2-Amino-5-(chroman-8-yl)-4-oxo-4,7-dihydro-3H-pyrrolo[2,3-d]pyrimidin-6-yl)-N,N-dimethylbenzene sulfonamide], for which the IC50 (as a rule, the concentration that inhibits the measured activity by half) is 500 to 1000 nM in experiment [1], 500 to 1000 nM in experiment [2] and more than 2500 nM in experiment [3].
As to `Nc1nc2[nH]c(-c3ccccc3)c(-c3cccc(F)c3)c2c(=O)[nH]1` [Example 58, 2-Amino-5-(3-fluorophenyl)-6-phenyl-3,7-dihydro-4H-pyrrolo[2,3-d] pyrimidin-4-one], the IC50 was 1000 to 2500 nM in experiment [1], 1000 to 2500 nM in experiment [2] and more than 2500 nM in experiment [3].
On to `COc1ccccc1-c1c(-c2ccc(C(=O)N(C)C)cc2)[nH]c2nc(N)[nH]c(=O)c12` [Example 56, 4-(2-Amino-5-(2-methoxyphenyl)-4-oxo-4,7-dihydro-3H-pyrrolo[2,3-d]pyrimidin-6-yl)-N,N-dimethylbenzamide], for which the IC50 in experiment [1] was 500 to 1000 nM; in experiment [2], 500 to 1000 nM; in experiment [3] it was more than 2500 nM.
On to `CN(C)S(=O)(=O)c1ccc(-c2[nH]c3nc(N)[nH]c(=O)c3c2-c2ccc(S(C)(=O)=O)cc2)cc1` [Example 13, 4-(2-Amino-5-(4-(methylsulfonyl)phenyl)-4-oxo-4,7-dihydro-3H-pyrrolo[2,3-d]pyrimidin-6-yl)-N,N-dimethylbenzene sulfonamide], for which the IC50 in experiment [1] is 100 to 500 nM; in experiment [2], 100 to 500 nM; in experiment [3] it was 1000 to 2500 nM.
As to `CN(C)S(=O)(=O)c1ccc(-c2[nH]c3nc(N)[nH]c(=O)c3c2-c2cccc(C(=O)O)c2)cc1` [Example 34, 3-(2-amino-6-(4-(N,N-dimethylsulfamoyl)phenyl)-4-oxo-4,7-dihydro-3H-pyrrolo[2,3-d]pyrimidin-5-yl)benzoic acid], the values for the IC50 in experiment [1], in experiment [2] and in experiment [3] were 100 to 500 nM, 100 to 500 nM and more than 2500 nM, respectively.
As for `COc1ccc(OC)c(-c2c(-c3ccc(S(=O)(=O)N(C)C)cc3)[nH]c3nc(N)[nH]c(=O)c23)c1` [Example 25, 4-(2-Amino-5-(2,5-dimethoxyphenyl)-4-oxo-4,7-dihydro-3H-pyrrolo[2,3-d]pyrimidin-6-yl)-N,N-dimethylbenzene sulfonamide], the half-inhibitory concentration (IC50) in experiment [1] was 500 to 1000 nM; in experiment [2], 500 to 1000 nM; in experiment [3], more than 2500 nM.
Turning to `CN(C)S(=O)(=O)c1ccc(-c2[nH]c3nc(N)[nH]c(=O)c3c2-c2cccc3c2OCC3)cc1` [Example 41, 4-(2-Amino-5-(2,3-dihydrobenzofuran-7-yl)-4-oxo-4,7-dihydro-3H-pyrrolo[2,3-d]pyrimidin-6-yl)-N,N-dimethylbenzene sulfonamide], the concentration for half-maximal inhibition (IC50) was 100 to 500 nM in experiment [1], 100 to 500 nM in experiment [2] and more than 2500 nM in experiment [3].
With `CN(C)S(=O)(=O)c1ccc(-c2[nH]c3nc(N)[nH]c(=O)c3c2-c2cccc(CO)c2)cc1` [Example 4, 4-(2-Amino-5-(3-(hydroxymethyl)phenyl)-4-oxo-4,7-dihydro-3H-pyrrolo [2,3-d]pyrimidin-6-yl)-N,N-dimethyl-benzene sulfonamide], the concentration for half-maximal inhibition (IC50) is 500 to 1000 nM in experiment [1], 500 to 1000 nM in experiment [2] and 1000 to 2500 nM in experiment [3].
As for `CN(C)S(=O)(=O)c1ccc(-c2[nH]c3nc(N)[nH]c(=O)c3c2-c2cccc3c2OCCN3)cc1` [Example 49, 4-(2-Amino-5-(3,4-dihydro-2H-benzo[b][1,4]oxazin-8-yl)-4-oxo-4,7-dihydro-3H-pyrrolo[2,3-d]pyrimidin-6-yl)-N,N-dimethylbenzenesulfonamide], the values for the half-maximal inhibitory concentration (IC50) in experiment [1], in experiment [2] and in experiment [3] were 500 to 1000 nM, 500 to 1000 nM and more than 2500 nM, respectively.
As for `Cc1cccc(-c2c(-c3cccc(C(=O)N(C)C)c3)[nH]c3nc(N)[nH]c(=O)c23)c1` [Example 61, 3-(2-Amino-4-oxo-5-(3-tolyl)-4,7-dihydro-3H-pyrrolo [2,3-d]pyrimidin-6-yl)-N,N-dimethyl-benzamide], the values for the IC50 in experiment [1], in experiment [2] and in experiment [3] were 1000 to 2500 nM, 1000 to 2500 nM and more than 2500 nM, respectively.
